For experiment [1], the system named is Acinetobacter baumannii (ATCC19606). As to the kind of experiment: microbe, parasite or virus in culture. An excerpt: (§1) Viba 11, originally discovered in Viola baoshanensis[39] and found in other plants such as Viola tricolor[40], Viola betonicifolia, and Viola philippica, lacks biological activity studies. […] All purified cyclotides underwent antibacterial testing against Gram-positive bacterium Staphylococcus aureus (CMCC(B)26003-2-10) and Bacillus subtilis (CMCC(B)63501), Gram-negative bacteria, including Acinetobacter baumannii (ATCC19606), Escherichia coli (CMCC(B)44102-2-6), and Salmonella paratyphi (CMCC(B)50094-2-9).
(§2) Bacterial fluids are cultured overnight at 37 °C. The next day, the bacterial liquids are diluted to a concentration of 10^6 CFU/ml. Prepare different concentrations of cyclotide drugs and kanamycin sulfate in advance, and sequentially add the drugs and bacterial liquid to the 96-well plate. Negative controls consisted of sterile water and bacterial liquid. The plate is cultured overnight at 37 °C and observe whether the solution remains clear to see the growth of the bacterial suspension. Each test was performed three times at least.

Experiment [2] deals with Salmonella paratyphi (CMCC(B)50094-2-9). The experiment in a line: MIC, broth dilution in 96-well plate. The experiment is classed as cell-based. The following applies: 10^6 CFU/ml, overnight 37 °C, visual clarity, performed at least three times.
Source text: (§3) Cycloviolacin O2, known for its antimicrobial, hemolytic, and insecticidal activities, has been more extensively investigated[4],[20],[36]–[38]. Viba 11, originally discovered in Viola baoshanensis[39] and found in other plants such as Viola tricolor[40], Viola betonicifolia, and Viola philippica, lacks biological activity studies. These two cyclotides and vija 10 are high in content and easy to purify, and cycloviolacin O2 can also be used as a positive control to conduct activity study. In addition, few vija12 and 31 were extracted for antibacterial experiments. All purified cyclotides underwent antibacterial testing against Gram-positive bacterium Staphylococcus aureus (CMCC(B)26003-2-10) and Bacillus subtilis (CMCC(B)63501), Gram-negative bacteria, including Acinetobacter baumannii (ATCC19606), Escherichia coli (CMCC(B)44102-2-6), and Salmonella paratyphi (CMCC(B)50094-2-9). […] In addition, the MICs of viba 11, cycloviolacin O2 and vija 10 against B. subtilis were respectively 5.4 μM, 2.1 μM and 14.3 μM (Table 1). […] Therefore, it is hypothesized that the lower antimicrobial activity of vija 10 may be attributed to the presence of only one Lys residue in loop 5.
as §2
On the technique in general: In broth dilution the organism is exposed to a series of concentrations in liquid medium.

Experiment [3] deals with Staphylococcus aureus (CMCC(B)26003-2-10). As to the kind of experiment: MIC, broth dilution in 96-well plate. The experiment is classed as cell-based. The following applies: 10^6 CFU/ml, overnight 37 °C, visual clarity, performed at least three times.
Source text: as §3, §2

The test system of experiment [4] is A549 (human non-small cell lung cancer cells). The experiment in a line: MTT cytotoxicity assay. It counts as cell-based. The following applies: 48 h incubation, mean ± SD of at least three repeats. On the procedure:
(§4) Five types of cells, namely A549 (human non-small cell lung cancer cells), T24 (human bladder cancer cells), 4T1 (mouse breast cancer cells), 7402 (human hepatocellular carcinoma cells), and THLE-3 (human hepatocytes cells), are selected for evaluating the cytotoxicity of viba 11, cycloviolacin O2, and vija 10 using the MTT (3-(4,5-dimethylthiazol-2-yl)-2,5-diphenyltetrazolium bromide) reagent.
(§5) To determine cell toxicity using MTT assay, cells are seeded in a 96-well plate and cultured for 24 h. After that, different concentrations of cyclotides are added to the cells and incubated for 48 h. MTT is then added to react with the cells, and after 4 h, the reaction is terminated by discarding the supernatant and adding dimethyl sulfoxide for resuspension. The absorbance at 570 nm is measured after 10 min of shaking at room temperature. Each test was performed three times at least. The data were analyzed using GraphPad Prism 8. During this process, the drug concentrations were transformed into logarithmic form with a base of 10 and plotted on the x-axis. Cell viability (%) = [A (cyclotides) − A (blank)]/[A (control) − A (blank)] × 100, which was represented on the y-axis. Using this method, we determined the IC50 value for each experiment, with each experiment repeated at least three times and the mean value calculated. The error was represented by the standard deviation of the IC50 obtained from three repetitions.
(Formazan colour is commonly taken as a measure of viable cells.)

Experiment [5] has as its system T24 (human bladder cancer cells). As to the kind of experiment: MTT cytotoxicity assay. The experiment is classed as cell-based. The conditions noted are these: 48 h incubation, mean ± SD of at least three repeats. The protocol: as §4, §5
Experiment [6] deals with THLE-3 (human hepatocytes cells). The experiment in a line: MTT cytotoxicity assay. It counts as cell-based. The following applies: THLE-3 cells, 48 h incubation, mean ± SD of at least three repeats. On the procedure: as §4, §5
The subject of experiment [7] is 7402 (human hepatocellular carcinoma cells). The experiment in a line: MTT cytotoxicity assay. The experiment is classed as cell-based. The following applies: 7402 cells, 48 h incubation, mean ± SD of at least three repeats. On the procedure:
as §4, §5

Experiment [8] relates to 4T1 (mouse breast cancer cells). As to the kind of experiment: MTT cytotoxicity assay. It counts as cell-based. The following applies: 4T1 cells, 48 h incubation, mean ± SD of at least three repeats. On the procedure: as §4, §5
Experiment [9] has as its system Bacillus subtilis (CMCC(B)63501). As to the kind of experiment: microbe, parasite or virus in culture.
Source text: as §1, §2

The test system of experiment [10] is Escherichia coli (CMCC(B)44102-2-6). The experiment in a line: microbe, parasite or virus in culture.
Source text: as §1, §2

Another experiment has as its system Acinetobacter baumannii. The experiment in a line: Time killing kinetics. It counts as cell-based. The following applies: about 10^6 CFU/mL, LB, 37 °C, colony count. On the procedure:
In this study, we investigated the time-kill kinetics characteristics of plant cyclotides against bacteria. […] It is worth noting that due to experimental constraints, there was a slight discrepancy of a few minutes between theoretical 0 h and actual 0 h. […] Furthermore, we also conducted time-kill kinetics studies using vija 10 against B. subtilis.
Figure 4 (A) The Acinetobacter baumannii time killing kinetics of cycloviolacin O2 at concentration of 1 MIC, 2 MIC, 4 MIC and 8 MIC at 37 °C. (B) The Bacillus subtilis time killing kinetics of vija 10 at concentration of 1 MIC, 2 MIC, 4 MIC at 37 °C. Each test was performed three times at least.
Incubate A. baumannii and B. subtilis in fresh nutrient LB broth at 37 °C until logarithmic growth stage, then dilute to approximately 10^6 CFU/mL, and incubate with cycloviolacin O2 at concentrations of 1 MIC, 2 MIC, 4 MIC, 8 MIC with A. baumannii and vija 10 at concentrations of 1 MIC, 2 MIC, 4 MIC with B. subtilis respectively. Taking the mixture at time points of 0 h, 0.5 h, 1 h, 1.5 h and 2 h, dilute and coat it to solid medium for 24 h. Count the number of colonies on solid culture medium. Each test was performed three times at least. Plotting a line graph with time on the x-axis and bacterial survival on the y-axis using GraphPad Prism 8. Statistical analysis of bacterial viability at different time points to determine the bactericidal and bacteriostatic effects of cyclotides.

The mark [11] stands for this setting: Acinetobacter baumannii ATCC19606, 10^6 CFU/ml, 96-well plate, overnight 37 °C, visual clarity, performed at least three times.
The mark [12] stands for this setting: 10^6 CFU/ml, 96-well plate, overnight 37 °C, visual clarity, performed at least three times.

The values below come from PMC11056381, “Characterization and evaluation of cytotoxic and antimicrobial activities of cyclotides from Viola japonica” (Scientific Reports, 2024).

Broadly, the IC50 is the concentration needed to halve the response being measured. Lower therefore signals higher potency.

≈ marks a conversion by molar mass, not a printed value. Structures can show the parent of a compound that is named as a salt. Where two headings read alike, the source gives them in different places. Residues, ends and D or L forms follow the SMILES beside them.

In experiment [1] (setting [11]), `CC[C@H](C)[C@@H]1NC(=O)[C@H](Cc2ccc(O)cc2)NC(=O)[C@H](CO)NC(=O)CNC(=O)[C@H](CC(N)=O)NC(=O)[C@H](CCCCN)NC(=O)[C@H](CCCCN)NC(=O)[C@@H]2CSSC[C@@H]3NC(=O)[C@H](CCCCN)NC(=O)[C@H](CC(C)C)NC(=O)[C@H](CCCCN)NC(=O)[C@H](C(C)C)NC(=O)[C@@H]4CSSC[C@H](NC(=O)[C@H]([C@@H](C)O)NC(=O)[C@H](CSSC[C@H](NC(=O)[C@H](CO)NC1=O)C(=O)NCC(=O)N[C@@H](CCC(=O)O)C(=O)N[C@@H]([C@@H](C)O)C(=O)N4)NC(=O)CNC(=O)[C@@H]1CCCN1C(=O)[C@H]([C@@H](C)O)NC(=O)[C@H](Cc1ccc(O)cc1)NC3=O)C(=O)N[C@@H]([C@@H](C)O)C(=O)N[C@@H](Cc1c[nH]c3ccccc13)C(=O)N1CCC[C@H]1C(=O)N[C@@H](C)C(=O)N2` [vija 12] (HELM PEPTIDE1{A.C.K.K.N.G.S.Y.I.S.C.G.E.T.C.V.K.L.K.C.Y.T.P.G.C.T.C.T.W.P}$PEPTIDE1,PEPTIDE1,2:R3-20:R3|PEPTIDE1,PEPTIDE1,11:R3-25:R3|PEPTIDE1,PEPTIDE1,15:R3-27:R3|PEPTIDE1,PEPTIDE1,1:R1-30:R2$$$V2.0) gave an MIC of 14.9 µM (≈ 48 µg/mL).
Same read-out and setting: then `CC(C)C[C@@H]1NC(=O)[C@@H]2CCCN2C(=O)[C@H](Cc2ccc(O)cc2)NC(=O)[C@H](CCCCN)NC(=O)[C@H](C)NC(=O)[C@@H]2CSSC[C@@H]3NC(=O)[C@H]([C@@H](C)O)NC(=O)[C@H](CCC(=O)O)NC(=O)CNC(=O)[C@@H]4CSSC[C@H](NC(=O)CNC(=O)[C@@H]5CCCN5C(=O)[C@H]([C@@H](C)O)NC(=O)[C@H](Cc5ccccc5)NC(=O)[C@H](CSSC[C@H](NC1=O)C(=O)N[C@@H](CO)C(=O)N[C@@H](CCCCN)C(=O)N[C@@H](CC(N)=O)C(=O)NCC(=O)N[C@@H](CO)C(=O)N[C@@H](C(C)C)C(=O)N[C@@H]([C@@H](C)O)C(=O)NCC(=O)N4)NC(=O)[C@H](CCCCN)NC(=O)[C@H](Cc1ccccc1)NC(=O)[C@H](CCCCN)NC(=O)[C@H](Cc1ccccc1)NC3=O)C(=O)N[C@@H](CCCCN)C(=O)N2` [vija 31] (HELM PEPTIDE1{A.K.Y.P.L.C.S.K.N.G.S.V.T.G.C.G.E.T.C.F.K.F.K.C.F.T.P.G.C.K.C}$PEPTIDE1,PEPTIDE1,6:R3-24:R3|PEPTIDE1,PEPTIDE1,15:R3-29:R3|PEPTIDE1,PEPTIDE1,19:R3-31:R3|PEPTIDE1,PEPTIDE1,1:R1-31:R2$$$V2.0), with 14.9 µM (≈ 48.9 µg/mL).
Regarding `CC[C@H](C)[C@@H]1NC(=O)[C@H](C)NC(=O)[C@H](CO)NC(=O)[C@H](CO)NC(=O)[C@H]([C@@H](C)CC)NC(=O)[C@@H]2CSSC[C@@H]3NC(=O)[C@H](C(C)C)NC(=O)[C@H](CCCCN)NC(=O)[C@H](CO)NC(=O)[C@H](CCCCN)NC(=O)[C@@H]4CSSC[C@H](NC(=O)[C@H](CO)NC(=O)[C@H](CCC(=O)O)NC(=O)CNC(=O)[C@H](CSSC[C@H](NC(=O)CNC1=O)C(=O)N[C@@H](CO)C(=O)N4)NC(=O)[C@@H]1CCCN1C(=O)[C@H]([C@@H](C)CC)NC(=O)CNC(=O)[C@H](CC(N)=O)NC(=O)[C@H](CCCNC(=N)N)NC(=O)[C@H](Cc1ccc(O)cc1)NC3=O)C(=O)N[C@@H](C(C)C)C(=O)N[C@@H](Cc1c[nH]c3ccccc13)C(=O)N[C@@H]([C@@H](C)CC)C(=O)N1CCC[C@H]1C(=O)N2` [cycloviolacin O2, reference compound] (HELM PEPTIDE1{A.I.G.C.S.C.K.S.K.V.C.Y.R.N.G.I.P.C.G.E.S.C.V.W.I.P.C.I.S.S}$PEPTIDE1,PEPTIDE1,4:R3-18:R3|PEPTIDE1,PEPTIDE1,6:R3-22:R3|PEPTIDE1,PEPTIDE1,11:R3-27:R3|PEPTIDE1,PEPTIDE1,1:R1-30:R2$$$V2.0), the MIC is more than 16.8 µM in [2]; more than 16.8 µM in experiment [3]; 2.1 µM (≈ 6.6 µg/mL) in [9] (setting [12]); 4.2 µM (≈ 13.2 µg/mL) in [1] (setting [11]); more than 16.8 µM in experiment [10] (setting [12]). In addition, the IC50 was 149 ± 30 nM in [4]; 1690 ± 160 nM in experiment [5]; 1210 ± 50 nM in experiment [6]; 1332 ± 10 nM in experiment [7]; 162 ± 10 nM in experiment [8]. Moreover, the “time of treatment to complete eradication of A. baumannii” value with Acinetobacter baumannii (4 MIC) was found to be 2 h; in the experiment on Acinetobacter baumannii (8 MIC), 1.5 h.
With `NC[C@H]1O[C@H](O[C@H]2[C@H](O)[C@@H](O[C@H]3O[C@H](CO)[C@@H](O)[C@H](N)[C@H]3O)[C@H](N)C[C@@H]2N)[C@H](O)[C@@H](O)[C@@H]1O` [Kanamycin sulfate, reference compound], the MIC in experiment [9] came out at 4 µM; in experiment [1] (Acinetobacter baumannii, ATCC19606) it was 8 µM; in [10], 8 µM.
